The text below walks through data of ChEMBL document CHEMBL1149294, “A novel class of inhibitors of peptide deformylase discovered through high-throughput screening and virtual ligand screening” (J Med Chem, 2004).

pIC50: −log10 of the molar value. Calls of active or inactive are those of the source. The calls are words filed in the database; no cut-off is given here.

The first experiment deals with Glycine max. The experiment in a line: Inhibition of soybean PDF using PDF/FDH coupled spectrophotometric assay.
`Cc1ccc(-c2nn(-c3ccccc3)cc2/C=C2\SC(=S)N(CC(=O)O)C2=O)cc1`: the result was inactive.

On to `O=C(O)CCN1C(=O)/C(=C/c2cn(-c3ccccc3)nc2-c2ccccc2)SC1=S`, for which the outcome was inactive.

Take `COC(=O)CCCCCN1C(=O)/C(=C/c2cc(C)n(-c3ccccc3)c2C)SC1=S`: the outcome was inactive.

In the next experiment the target is T1, Peptide deformylase (Escherichia coli, UniProt Q9JN24).
T1 sequence (Q9JN24 whole entry): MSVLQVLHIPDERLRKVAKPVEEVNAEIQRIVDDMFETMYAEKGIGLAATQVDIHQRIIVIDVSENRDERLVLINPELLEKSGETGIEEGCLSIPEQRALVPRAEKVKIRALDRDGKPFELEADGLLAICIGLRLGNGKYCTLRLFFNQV
The experiment is described as follows: Inhibition of Escherichia coli PDF.
In the case of `O=C(O)CCCCCN1C(=O)/C(=C/c2ccc(F)cc2)SC1=S`, the pIC50 was under 4.52.

`Cc1ccc(-c2nn(-c3ccccc3)cc2/C=C2\SC(=S)N(CC(=O)O)C2=O)cc1` showed a pIC50 of under 4.52.

`O=C(O)CCCCCN1C(=O)/C(=C/c2ccc(-c3ccc(Cl)c(Cl)c3)o2)SC1=S` gave a pIC50 of under 4.52.

As to `CC(/C=C1\SC(=S)N(CCCCCC(=O)O)C1=O)=C\c1ccccc1`, the pIC50 is under 4.52.

With `O=C(O)CCN1C(=O)/C(=C/c2cn(-c3ccccc3)nc2-c2ccccc2)SC1=S`, the pIC50 was under 4.52.

On to `Cc1nn(CCC#N)cc1/C=C1\SC(=S)N(CCCCCC(=O)O)C1=O`, for which the pIC50 is under 4.52.

Regarding `Cc1cc(/C=C2\SC(=S)N(CCCCCC(=O)O)C2=O)c(C)n1-c1ccccc1`, the pIC50 is under 4.52.

The compound `Cc1nn(-c2ccccc2)c(Cl)c1/C=C1\SC(=S)N(CCCCCC(=O)O)C1=O` had a negative logarithm of the IC50 (pIC50) of under 4.52.

The compound `COc1ccc(/C=C2\SC(=S)N(CCCCCC(=O)O)C2=O)cc1Br` showed a pIC50 of under 4.52.

Compound `O=C(O)CCCCCN1C(=O)/C(=C/c2cn(-c3ccccc3)nc2-c2ccccc2)SC1=S` showed a negative-log IC50 (pIC50) of under 4.52.

Compound `O=C(O)CCCCCN1C(=O)/C(=C/c2cn(-c3ccccc3)nc2-c2cccs2)SC1=S` showed a negative-log IC50 (pIC50) of under 4.52.

Compound `Cc1ccc(-c2nn(-c3ccccc3)cc2/C=C2\SC(=S)N(CCCCCC(=O)O)C2=O)o1` gave a pIC50 of under 4.52.

As for `Cc1cc(/C=C2\SC(=S)N(CCCCCC(=O)O)C2=O)c(C)n1-c1ccc(Br)cc1`, the pIC50 was under 4.52.

Take `CCOc1cc(/C=C2\SC(=S)N(CCCCCC(=O)O)C2=O)ccc1O`: the pIC50 is under 4.52.

`O=C(O)CCCCCN1C(=O)/C(=C/c2c[nH]c3ccccc23)SC1=S` gave a negative-log IC50 (pIC50) of under 4.52.

Turning to `COc1ccccc1/C=C1\SC(=S)N(CCCCCC(=O)O)C1=O`, the pIC50 is under 4.52.

The term pIC50 denotes the negative decadic logarithm of the IC50, by convention in mol/L. Lower therefore signals a high IC50.
